# From patent publication US8722849B2, “Polypeptides” (Novo Nordisk A/S, priority 2011, dated 2014)
# pEC50: −log10 of the molar value. Read-outs that look alike come from different tables or passages of the source. Starred links: 1 amine or outer side, 2 acyl side, 3 side chain; linkers in the order of their positions; H or OH if unused. Positions of bridges follow the written chain, without caps; N, C: chain ends. Residues, ends and D or L forms follow the SMILES beside them. *: point of attachment. C20 diacid = O=C(O)CCCCCCCCCCCCCCCCCCC(=O)*; γGlu = O=C(O)[C@H](CCC(=O)[*:2])N[*:1]
# How the values were obtained:
# [1] = biological target: T1, human amylin receptor (amylin 3(a) receptor: human calcitonin receptor + RAMP-3) (Homo sapiens, UniProt O60896+P30988); experiment: Assay (II)a functional CRE-luciferase assay, human amylin receptor; type: cell-based; settings: Table 2; BHK amylin 3(a)-receptor/CRE-luc cells
# T1 construct: expressed in transfected cells; host or cells: BHK570
# T1 sequence (P30988 25-474): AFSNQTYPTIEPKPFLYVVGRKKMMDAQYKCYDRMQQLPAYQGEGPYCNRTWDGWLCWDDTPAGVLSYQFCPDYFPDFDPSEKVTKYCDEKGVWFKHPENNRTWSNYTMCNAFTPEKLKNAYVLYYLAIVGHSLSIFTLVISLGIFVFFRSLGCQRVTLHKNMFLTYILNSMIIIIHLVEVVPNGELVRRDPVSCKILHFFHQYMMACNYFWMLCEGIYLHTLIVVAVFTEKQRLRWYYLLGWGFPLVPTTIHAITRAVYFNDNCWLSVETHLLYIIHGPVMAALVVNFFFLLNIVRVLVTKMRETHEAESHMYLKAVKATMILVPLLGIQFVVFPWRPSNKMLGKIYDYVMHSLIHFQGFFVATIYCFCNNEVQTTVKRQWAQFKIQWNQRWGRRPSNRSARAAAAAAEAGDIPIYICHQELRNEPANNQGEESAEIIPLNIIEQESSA
# T1 sequence (O60896 24-148 partner): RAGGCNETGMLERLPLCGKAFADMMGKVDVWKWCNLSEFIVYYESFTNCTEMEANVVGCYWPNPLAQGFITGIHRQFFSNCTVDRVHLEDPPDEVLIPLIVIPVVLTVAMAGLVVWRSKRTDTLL
# [2] = biological target: T2, human calcitonin receptor (Homo sapiens, UniProt P30988); experiment: Assay (II)a functional CRE-luciferase assay, human calcitonin receptor; type: cell-based; settings: Table 7; human calcitonin (CTa) receptor
# T2 construct: expressed in transfected cells; host or cells: BHK570
# T2 sequence (P30988 25-474): T1 sequence (P30988 25-474)
# [3] = Assay (III) ThT fibrillation assay for physical stability; type: physicochemical; settings: ThT fibrillation assay
# Outline: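 Freshly prepared formulations, pH-adjusted, with 1 μM ThT; four or eight replicates incubated at 37 °C under 960 rpm orbital shaking. Fluorescence (ex 444/em 485 nm) read every 20 min; […]. Peptide concentration measured by RP-HPLC before and after the run.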
# [4] = Assay (IV) determination of solubility; type: physicochemical
# Outline: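 Polypeptide in water (~500 nmol/ml) mixed 1:1 with 100 mM glycylglycine (pH 3.0–5.0) or bistrispropane (pH 6.0–8.0) buffers. Held 18 hours at room temperature, then centrifuged. Polypeptide remaining in solution quantified by HPLC.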
# [5] = bistrispropane buffer, pH 6, pH 6.0, read-out: Solubility pH 6.0
# [6] = bistrispropane buffer, pH 6.5, pH 6.5, read-out: Solubility pH 6.5
# [7] = bistrispropane buffer, pH 7, pH 7.0, read-out: Solubility pH 7.0
# [8] = bistrispropane buffer, pH 7.5, pH 7.5, read-out: Solubility pH 7.5
# [9] = bistrispropane buffer, pH 8, pH 8.0, read-out: Solubility pH 8.0
# [10] = glycylglycine buffer, pH 3, pH 3.0, read-out: Solubility pH 3.0
# [11] = glycylglycine buffer, pH 4, pH 4.0, 18 hours at room temperature, Table 2, read-out: Solubility pH 4.0
# [12] = glycylglycine buffer, pH 4, pH 4.0, read-out: Solubility pH 4.0
# [13] = glycylglycine buffer, pH 5, pH 5.0, read-out: Solubility pH 5.0
# [14] = bistrispropane buffer, pH 7, pH 7.0, 18 hours at room temperature, Table 3, read-out: Solubility pH 7.0
pEC50 [1],pEC50 [2],ThT pH 4.0 lag time [3],ThT pH 4.0 lag time (h) [3],"solubility at 18 h [4, 5]","solubility at 18 h [4, 6]","solubility at 18 h [4, 7]","solubility at 18 h [4, 8]","solubility at 18 h [4, 9]","solubility at 18 h [4, 10]","solubility at 18 h [4, 11]","solubility at 18 h [4, 12]","solubility at 18 h [4, 13]","solubility at 18 h [4, 14]",Compound
10.09,9.76,>45 h,>45 h,> 200 µM,16 µM,2 µM,11 µM,51 µM,> 200 µM,> 200 µM,> 200 µM,> 200 µM,–,"CC[C@H](C)[C@H](NC(=O)[C@@H]1CCCN1C(=O)CNC(=O)[C@H](Cc1ccccc1)NC(=O)[C@H](CC(N)=O)NC(=O)[C@H](CC(N)=O)NC(=O)[C@H](CO)NC(=O)[C@H](CO)NC(=O)[C@H](Cc1c[nH]cn1)NC(=O)[C@H](Cc1c[nH]cn1)NC(=O)[C@H](CC(C)C)NC(=O)[C@H](Cc1ccccc1)NC(=O)[C@H](CCC(=O)O)NC(=O)[C@H](C)NC(=O)[C@H](CC(C)C)NC(=O)[C@H](CCCNC(=N)N)NC(=O)[C@H](CCC(N)=O)NC(=O)[C@@H](NC(=O)[C@H](C)NC(=O)[C@@H]1CSSC[C@H](NC(=O)[C@H](CCCNC(=N)N)NC(=O)CC[C@H](NC(=O)CCCCCCCCCCCCCCCCCCC(=O)O)C(=O)O)C(=O)N[C@@H](CC(N)=O)C(=O)N[C@@H]([C@@H](C)O)C(=O)N[C@@H](C)C(=O)N[C@@H]([C@@H](C)O)C(=O)N1)[C@@H](C)O)C(=O)N[C@@H](CC(C)C)C(=O)N1CCC[C@H]1C(=O)N1CCC[C@H]1C(=O)N[C@H](C(=O)N[C@@H](CC(N)=O)C(=O)N[C@H](C(=O)NCC(=O)N[C@@H](CO)C(=O)N[C@@H](Cc1c[nH]cn1)C(=O)N[C@H](C(=O)N[C@@H](Cc1ccc(O)cc1)C(N)=O)[C@@H](C)O)C(C)C)[C@@H](C)O [Example 95, N-alpha-[(S)-4-Carboxy-4-(19-carboxynonadecanoylamino)butyryl]-[Arg1,Glu14,His17,His35]-pramlintide] ({C20 diacid-γGlu}-RCNTATCATQRLAEFLHHSSNNFGPILPPTNVGSHTY-NH2; disulfide 2-7 (inferred))"
10.20,10.15,–,9.7 h,> 200 µM,> 200 µM,> 200 µM,> 200 µM,> 200 µM,> 200 µM,> 200 µM,> 200 µM,> 200 µM,> 200 µM,"CC[C@H](C)[C@H](NC(=O)[C@@H]1CCCN1C(=O)CNC(=O)[C@H](Cc1ccccc1)NC(=O)[C@H](CC(N)=O)NC(=O)[C@H](CC(N)=O)NC(=O)[C@H](CO)NC(=O)[C@H](CO)NC(=O)[C@H](Cc1c[nH]cn1)NC(=O)[C@H](Cc1c[nH]cn1)NC(=O)[C@H](CC(C)C)NC(=O)[C@H](Cc1ccccc1)NC(=O)[C@H](CCC(=O)O)NC(=O)[C@H](C)NC(=O)[C@H](CC(C)C)NC(=O)[C@H](CCCNC(=N)N)NC(=O)[C@H](CCC(N)=O)NC(=O)[C@@H](NC(=O)[C@H](C)NC(=O)[C@@H]1CSSC[C@H](NC(=O)[C@H](CO)NC(=O)CC[C@H](NC(=O)CCCCCCCCCCCCCCCCCCC(=O)O)C(=O)O)C(=O)N[C@@H](CC(N)=O)C(=O)N[C@@H]([C@@H](C)O)C(=O)N[C@@H](C)C(=O)N[C@@H]([C@@H](C)O)C(=O)N1)[C@@H](C)O)C(=O)N[C@@H](CC(C)C)C(=O)N1CCC[C@H]1C(=O)N1CCC[C@H]1C(=O)N[C@H](C(=O)N[C@@H](CC(N)=O)C(=O)N[C@H](C(=O)NCC(=O)N[C@@H](CO)C(=O)N[C@@H](CC(N)=O)C(=O)N[C@H](C(=O)N1CCC[C@H]1C(N)=O)[C@@H](C)O)C(C)C)[C@@H](C)O [Example 106, N-alpha-[(S)-4-Carboxy-4-(19-carboxynonadecanoylamino)butyryl]-[Ser1,Glu14,His17,Pro37]-pramlintide] ({C20 diacid-γGlu}-SCNTATCATQRLAEFLHHSSNNFGPILPPTNVGSNTP-NH2; disulfide 2-7 (inferred); C-terminus assumed)"
9.54,9.35,–,19 h,> 200 µM,> 200 µM,> 200 µM,> 200 µM,> 200 µM,> 200 µM,> 200 µM,> 200 µM,> 200 µM,> 200 µM,"CC[C@H](C)[C@H](NC(=O)[C@@H]1CCCN1C(=O)CNC(=O)[C@H](Cc1ccccc1)NC(=O)[C@H](CC(N)=O)NC(=O)[C@H](CC(N)=O)NC(=O)[C@H](CO)NC(=O)[C@H](CO)NC(=O)[C@H](Cc1c[nH]cn1)NC(=O)[C@H](Cc1c[nH]cn1)NC(=O)[C@H](CC(C)C)NC(=O)[C@H](Cc1ccccc1)NC(=O)[C@H](CCC(=O)O)NC(=O)[C@H](C)NC(=O)[C@H](CC(C)C)NC(=O)[C@H](CCCNC(=N)N)NC(=O)[C@H](CCC(N)=O)NC(=O)[C@@H](NC(=O)[C@H](C)NC(=O)[C@@H]1CSSC[C@H](NC(=O)[C@H](CCC(=O)O)NC(=O)[C@H](CCCNC(=N)N)NC(=O)[C@H](CCC(=O)O)NC(=O)[C@H](CCC(=O)O)NC(=O)CCCCCCCCCCCCCCCCCCC(=O)O)C(=O)N[C@@H](CC(N)=O)C(=O)N[C@@H]([C@@H](C)O)C(=O)N[C@@H](C)C(=O)N[C@@H]([C@@H](C)O)C(=O)N1)[C@@H](C)O)C(=O)N[C@@H](CC(C)C)C(=O)N1CCC[C@H]1C(=O)N1CCC[C@H]1C(=O)N[C@H](C(=O)N[C@@H](CC(N)=O)C(=O)N[C@H](C(=O)NCC(=O)N[C@@H](CO)C(=O)N[C@@H](CC(N)=O)C(=O)N[C@H](C(=O)N1CCC[C@H]1C(N)=O)[C@@H](C)O)C(C)C)[C@@H](C)O [Example 125, N-alpha-(19-carboxynonadecanoyl)-Glu-Glu-Arg-[Glu1,Glu14,His17,Pro37]-pramlintide] ({C20 diacid}-EERECNTATCATQRLAEFLHHSSNNFGPILPPTNVGSNTP-NH2; disulfide 5-10 (inferred); C-terminus assumed)"
